Our source for the Activity and Ki values is ChEMBL document CHEMBL1138215, “Aminodeoxychorismate synthase inhibitors from one-bead one-compound combinatorial libraries: "staged" inhibitor design” (J Med Chem, 2006).

The source made the active and inactive calls. The rule behind the calls is not given here.

One assay deals with 4-amino-4-deoxychorismate synthase ADCS/PabB (Escherichia coli). The experiment in a line: Inhibition of ADCS.
Turning to `O=C(O)CCC1=CC(CCC(=O)O)CCC1=O` (centres undefined), the outcome was inactive.

Another assay addresses 4-amino-4-deoxychorismate synthase (Escherichia coli). The experiment in a line: Inhibition of ADCS.
In the case of `O=C(O)COc1ccc(C(=O)O)cc1`, the affinity, expressed as Ki, was 100 mM.
`CC(=O)N[C@@H](CCCCNC(=O)c1cccc(OCC(=O)O)c1)C(N)=O` registered an inhibition constant Ki of 31 mM.
For the molecule `NC(=O)C1(NC(=O)[C@H](CCCCNC(=O)c2cccc(OCC(=O)O)c2)NC(=O)c2ccc(Oc3ccccc3)cc2)CCS(=O)(=O)CC1`, the Ki was 0.71 mM. This Ki lies about 44-fold lower than the previous one.
Consider `COc1cccc(OC)c1C(=O)N[C@@H](CCCCNC(=O)c1cccc(OCC(=O)O)c1)C(=O)N[C@@H](Cc1ccc([N+](=O)[O-])c(O)c1)C(N)=O`, for which the affinity, expressed as Ki, was 0.72 mM.
The same measure, in the same setting: under `NC(=O)C1(NC(=O)[C@H](CCCCNC(=O)c2cccc(OCC(=O)O)c2)NC(=O)c2cc(O)cc(O)c2)CCCCC1` stands 1.1 mM.
As to `CC(=O)N[C@@H](CCCCNCc1cccc(OCC(=O)O)c1)C(N)=O`, the Ki worked out at 38 mM. Compared with the last molecule, the Ki is about 35-fold higher.
Turning to `NC(=O)C1(NC(=O)[C@H](CCCCNC(=O)c2cccc(OCC(=O)O)c2)NC(=O)c2ncccc2C(=O)c2ccccc2)CCCCC1`, the Ki was 3.9 mM.
In turn, `CC(C(=O)N[C@@H](CCCCNC(=O)c1cccc(OCC(=O)O)c1)C(=O)NCCc1cccc2c1oc1c(CCC(N)=O)cccc12)c1ccc([N+](=O)[O-])cc1` (some centres undefined) displayed an inhibition constant Ki of 0.36 mM.
Still for that read-out and setting: under `Cc1ccc(C(=O)N[C@@H](CCCCNC(=O)c2cccc(OCC(=O)O)c2)C(=O)NCC(C(N)=O)C2CCCCC2)c([N+](=O)[O-])c1O` (some centres undefined) stands 1.7 mM.
On the same count and under the same terms, under `CC(C(=O)N[C@@H](CCCCNC(=O)c1cccc(OCC(=O)O)c1)C(=O)NCCc1cccc2c1oc1c(CCC(=O)NCCOCCOCCNC(=O)CCC(=O)N3CCN(CC(N)=O)CC3)cccc12)c1ccc([N+](=O)[O-])cc1` (some centres undefined) stands 1.4 mM; under `O=C(O)CNc1cc(C(=O)O)ccc1F`, 3 mM; under `NC(=O)c1cccc(OCC(=O)O)c1`, 32 mM.
The same measure, in the same setting: next, `O=C(O)COc1cccc(C(=O)O)c1`: 37 mM; `O=C(O)c1ccc(=O)oc1`: 2 mM; `Cc1ccc(C(=O)N[C@@H](CCCCNC(=O)c2cccc(OCC(=O)O)c2)C(=O)N[C@@H](Cc2cccc(Cl)c2)C(=O)NCCOCCOCCNC(=O)CCC(=O)N2CCN(CC(N)=O)CC2)c([N+](=O)[O-])c1O`: 1.5 mM.
The molecule `O=C(O)CCNc1ccc(C(=O)O)cc1` showed an inhibition constant (Ki) of 13 mM.
Molecule `Cc1ccc(C(=O)N[C@@H](CCCCNC(=O)c2cccc(OCC(=O)O)c2)C(=O)N[C@@H](Cc2cccc(Cl)c2)C(N)=O)c([N+](=O)[O-])c1O` registered a Ki of 0.77 mM. Compared with the last molecule, the Ki is about 17-fold lower.
Molecule `Cc1ccc(C(=O)N[C@@H](CCCCNC(=O)c2cccc(OCC(=O)O)c2)C(=O)N[C@@H](Cc2ccc(C#N)cc2)C(N)=O)c([N+](=O)[O-])c1O` came in with an inhibition constant (Ki) of 0.54 mM.

The term Ki denotes a dissociation constant, usually derived from enzyme kinetics or from competition with a known ligand. Low values mean tighter binding, high ones weaker binding.
